{"source": "patent US20070197599A1", "about": "“HYDROXYLAMINES AND DERIVATIVES AS ANTI-ANGIOGENIC AGENTS” (priority 2006, published 2007)", "key": {"[1]": {"test": "In vitro stability of Compound 1 in rabbit plasma", "type": "in vitro ADME", "details": "formed from OT-551 (Compound 1, 1000 ng/mL)", "experimental": "(§1) The active metabolite of Compound 1 (Cyclopropanecarboxylic acid 1-hydroxy-2,2,6,6-tetramethyl-piperidin-4-yl ester) is TPH. The objective of this analysis was to determine the in vitro half-life of Compound 1 in rat, rabbit, dog, and human plasma under standardized incubation conditions.\n(§2) Compound 1 was incubated with pooled rat, rabbit, dog, and human plasma for various times under standardized incubation conditions. Pre-labeled tubes containing pooled plasma from rats, rabbits, dogs, and humans were pre-incubated in a shaking 37° C. water bath. A Compound 1 solution was added to the tubes at a final concentration of 1000 ng/mL. Time zero samples (n=5) were immediately removed and transferred into tubes containing a stabilizer solution (DTPA, acetylcysteine and ascorbic acid), the LC/MS/MS assay internal standard and methanol. […] The tubes were vortexed, placed on ice, followed by centrifugation. One hundred-μL aliquots of the supernatant were transferred into HPLC sample vials. Additional tubes (n=5 at each time point) were incubated for 5, 10, 20, 30, 60, 120, and 240 minutes at 37° C. and thereafter processed. The amount of Compound 1 and TPH in each incubated sample was quantified using validated LC/MS/MS assays."}, "[2]": {"test_system": "VEGF-induced angiogenesis in the CAM model", "test": "VEGF-induced angiogenesis in the CAM model (TPH)", "type": "in vivo, chick", "experimental": "(§3) Neovascularization was examined by previously described methods (see references at the end of Example 5). Ten-day-old fertilized chicken eggs were incubated at 37° C. with 55% relative humidity. In the dark with the help of candling lamp and using a hypodermic needle a small hole was punctured in the shell covering the air sac. A second hole was punctured on the wider side of the egg above an avascular area of the embryonic membrane. An artificial air sac was created below the second hole by applying gentle vacuum to the first hole using a small rubber squeeze bulb. The vacuum caused the separation of chorioallantoic membrane (CAM) from the shell. An approximately 1.0 cm^2 widow was cut in the shell over the dropped CAM with the use of a mini drill. The underlying CAM was accessed through this small window.\n(§4) Filter disks were punched using a small puncher from filter paper #1 (Whatman International, United Kingdom). Filter disks were soaked in 3 mg/ml cortisone acetate solution (95% ethanol and water) and air-dried under sterile condition. For inducing angiogenesis, sterile filter disks were saturated with bFGF (1 μg/ml) or other pro-angiogenesis factors and control disks were saturated with PBS without Calcium and Magnesium.\n(§5) Using sterile forceps one filter/CAM was placed from the window. The window was sealed with Highland brand transparent tape. After 24 hr, 10-25 µl of test agent (inhibitor) was injected intravenously or added topically into the CAM membrane of bFGF or other pro-angiogenesis factors stimulated CAMs. • Control filter disks received PBS without Calcium and Magnesium. • After 48 hr, CAM tissue directly beneath filter disk was harvested and placed in a 35-mm Petri dish. Eight-Ten eggs/treatment group was used.\n(§6) A pro-angiogenic agent (see Examples, below) was added to induce new blood vessel branches on the CAM of 10-day old embryos. Sterile disks of #1 filter paper (Whatman International, United Kingdom) were pre-treated with 3 mg/ml cortisone acetate, and air dried under sterile conditions. The disks were then suspended in PBS (Phosphate Buffered Saline) and placed on growing CAMs. Filters treated with TPH (TEMPOL-H) or TEMPOL and/or H2O2 or TPH and/or bFGF or VEGF were placed on the first day of the 3-day incubation.\n(§7) Digital Images and Microscopic analysis of CAM sections: CAM sections from Petri dish were examined using SV6 stereomicroscope (Karl Zeiss) at 50× magnification. Digital images were captured using a 3-CCD color video camera system (Toshiba America, New York, N.Y.). These images were analyzed using Image-Pro Plus software (Media Cybernetics). The number of branch points in blood vessels within the circular region superimposed to the area of a filter disk was counted for each section. After incubation at 37° C. with 55% relative humidity for 3 days, the CAM tissue directly beneath each filter disk was resected from control and treated CAM samples. Tissues were washed three times with PBS. Sections were placed in a 35-mm Petri dish (Nalge Nunc; Rochester, N.Y.) and were examined under a SV6 stereomicroscope (Karl Zeiss; Thornwood, N.Y.) at 50× magnification. Digital images of CAM sections adjacent to filters were collected using a 3-CCD color video camera system (Toshiba America; New York, N.Y.) and analyzed with the Image-Pro Plus software (Media Cybernetics; Silver Spring, Md.). The number of vessel branch points contained in a circular region equal to the area of a filter disk was counted for each section. Percent inhibition data are expressed as the quotient of the experimental value minus the negative control value divided by the difference between the positive control value and the negative control value. One image was counted in each CAM preparation, and findings from eight CAM preparations were analyzed for each treatment condition. In addition, each experiment was performed three times. […]"}, "[3]": {"test": "In vitro stability of Compound 1 in human plasma", "type": "in vitro ADME", "details": "formed from OT-551 (Compound 1, 1000 ng/mL)", "experimental": "as §1, §2"}, "[4]": {"test": "In vitro stability of Compound 1 in rat plasma", "type": "in vitro ADME", "details": "formed from OT-551 (Compound 1, 1000 ng/mL)", "experimental": "as §1, §2"}, "mouse V79 cells": {"test_system": "mouse V79 cells", "details": "Mitchell et al., 2000; cited from earlier work"}, "[5]": {"test_system": "bFGF-induced angiogenesis in the CAM model", "test": "bFGF-induced angiogenesis in the CAM model (TPH)", "type": "in vivo, chick", "experimental": "as §3, §4, §5, §6, §7"}}}
{"smiles": "CC1(C)CC(O)CC(C)(C)N1O", "note": "[TPH]", "values": [{"measurement": "Concentration of TPH in plasma", "setting": "[1]; incubation 0 min", "value": "270.55 ± 35.45", "unit": "ng/mL"}, {"measurement": "Concentration of TPH in plasma", "setting": "[1]; incubation 5 min", "value": "587.17 ± 21.99", "unit": "ng/mL"}, {"measurement": "Concentration of TPH in plasma", "setting": "[1]; incubation 10 min", "value": "604.21 ± 21.99", "unit": "ng/mL"}, {"measurement": "Concentration of TPH in plasma", "setting": "[1]; incubation 20 min", "value": "590.06 ± 40.97", "unit": "ng/mL"}, {"measurement": "Concentration of TPH in plasma", "setting": "[1]; incubation 30 min", "value": "533.01 ± 117.40", "unit": "ng/mL"}, {"measurement": "Concentration of TPH in plasma", "setting": "[1]; incubation 60 min", "value": "569.19 ± 32.96", "unit": "ng/mL"}, {"measurement": "Concentration of TPH in plasma", "setting": "[1]; incubation 120 min", "value": "525.63 ± 10.31", "unit": "ng/mL"}, {"measurement": "Concentration of TPH in plasma", "setting": "[1]; incubation 240 min", "value": "477.54 ± 40.95", "unit": "ng/mL"}, {"measurement": "inhibition of VEGF-induced angiogenesis", "setting": "[2]; 100-800 μg (Table 3)", "value": "dose-dependent inhibition"}, {"measurement": "anti-angiogenesis efficacy against VEGF-induced angiogenesis as compared with bFGF", "setting": "[2]; Tables 2 and 3", "value": "much greater"}, {"measurement": "Mean % Inhibition ± SD", "setting": "[2]; VEGF (2 μg/ml) + TPH 100 μg", "value": "37.6 ± 6.9", "unit": "%"}, {"measurement": "Mean Branch points ± SD", "setting": "[2]; VEGF (2 μg/ml) + TPH 100 μg", "value": "154.8 ± 7.5"}, {"measurement": "Mean % Inhibition ± SD", "setting": "[2]; VEGF (2 μg/ml) + TPH 200 μg", "value": "42 ± 3.5", "unit": "%"}, {"measurement": "Mean Branch points ± SD", "setting": "[2]; VEGF (2 μg/ml) + TPH 200 μg", "value": "150 ± 3.8"}, {"measurement": "Mean % Inhibition ± SD", "setting": "[2]; VEGF (2 μg/ml) + TPH 400 μg", "value": "53.3 ± 3.3", "unit": "%"}, {"measurement": "Mean Branch points ± SD", "setting": "[2]; VEGF (2 μg/ml) + TPH 400 μg", "value": "137.8 ± 3.0"}, {"measurement": "Mean % Inhibition ± SD", "setting": "[2]; VEGF (2 μg/ml) + TPH 800 μg", "value": "70.7 ± 9.1", "unit": "%"}, {"measurement": "Mean Branch points ± SD", "setting": "[2]; VEGF (2 μg/ml) + TPH 800 μg", "value": "118.8 ± 9.9"}, {"measurement": "Concentration of TPH in plasma", "setting": "[3]; incubation 0 min", "value": "48.76 ± 2.84", "unit": "ng/mL"}, {"measurement": "Concentration of TPH in plasma", "setting": "[3]; incubation 5 min", "value": "186.71 ± 4.58", "unit": "ng/mL"}, {"measurement": "Concentration of TPH in plasma", "setting": "[3]; incubation 10 min", "value": "241.99 ± 8.05", "unit": "ng/mL"}, {"measurement": "Concentration of TPH in plasma", "setting": "[3]; incubation 20 min", "value": "310.10 ± 8.54", "unit": "ng/mL"}, {"measurement": "Concentration of TPH in plasma", "setting": "[3]; incubation 30 min", "value": "365.53 ± 14.44", "unit": "ng/mL"}, {"measurement": "Concentration of TPH in plasma", "setting": "[3]; incubation 60 min", "value": "449.85 ± 9.73", "unit": "ng/mL"}, {"measurement": "Concentration of TPH in plasma", "setting": "[3]; incubation 120 min", "value": "519.12 ± 19.52", "unit": "ng/mL"}, {"measurement": "Concentration of TPH in plasma", "setting": "[3]; incubation 240 min", "value": "501.39 ± 11.33", "unit": "ng/mL"}, {"measurement": "Concentration of TPH in plasma", "setting": "[4]; incubation 0 min", "value": "10.23 ± 1.59", "unit": "ng/mL"}, {"measurement": "Concentration of TPH in plasma", "setting": "[4]; incubation 5 min", "value": "30.47 ± 1.65", "unit": "ng/mL"}, {"measurement": "Concentration of TPH in plasma", "setting": "[4]; incubation 10 min", "value": "50.91 ± 2.11", "unit": "ng/mL"}, {"measurement": "Concentration of TPH in plasma", "setting": "[4]; incubation 20 min", "value": "86.30 ± 3.30", "unit": "ng/mL"}, {"measurement": "Concentration of TPH in plasma", "setting": "[4]; incubation 30 min", "value": "119.63 ± 7.08", "unit": "ng/mL"}, {"measurement": "Concentration of TPH in plasma", "setting": "[4]; incubation 60 min", "value": "201.94 ± 4.19", "unit": "ng/mL"}, {"measurement": "Concentration of TPH in plasma", "setting": "[4]; incubation 120 min", "value": "304.66 ± 7.27", "unit": "ng/mL"}, {"measurement": "Concentration of TPH in plasma", "setting": "[4]; incubation 240 min", "value": "362.66 ± 7.50", "unit": "ng/mL"}, {"measurement": "radioprotection of mouse V79 cells", "setting": "mouse V79 cells", "value": "did not provide any radioprotection"}, {"measurement": "inhibition of bFGF-induced angiogenesis", "setting": "[5]; 100-400 μg", "value": "dose-dependent inhibition"}, {"measurement": "Mean % Inhibition ± SD", "setting": "[5]; bFGF (1 μg/ml) + TPH 100 μg", "value": "20 ± 12", "unit": "%"}, {"measurement": "Mean Branch points ± SEM", "setting": "[5]; bFGF (1 μg/ml) + TPH 100 μg", "value": "172 ± 12.4"}, {"measurement": "Mean % Inhibition ± SD", "setting": "[5]; bFGF (1 μg/ml) + TPH 200 μg", "value": "45.3 ± 7.5", "unit": "%"}, {"measurement": "Mean Branch points ± SEM", "setting": "[5]; bFGF (1 μg/ml) + TPH 200 μg", "value": "147.2 ± 7.5"}, {"measurement": "Mean % Inhibition ± SD", "setting": "[5]; bFGF (1 μg/ml) + TPH 400 μg", "value": "58.7 ± 10.9", "unit": "%"}, {"measurement": "Mean Branch points ± SEM", "setting": "[5]; bFGF (1 μg/ml) + TPH 400 μg", "value": "133.8 ± 10.8"}, {"measurement": "Mean % Inhibition ± SD", "setting": "[5]; bFGF (1 μg/ml) + TPH 800 μg", "value": "28.1 ± 6.8", "unit": "%"}, {"measurement": "Mean Branch points ± SEM", "setting": "[5]; bFGF (1 μg/ml) + TPH 800 μg", "value": "164.2 ± 6.7"}]}
